# From US9902728B2, “Pyrrolo and pyrazolopyrimidines as ubiquitin-specific protease 7 inhibitors” (Forma Therapeutics, Inc., priority 2014, dated 2018)
# Target: T1, USP7 (Homo sapiens, UniProt Q93009)
# T1 construct: USP7, construct USP7 (208-1102) 6*His, Viva Biotech; 6xHis (C); purchased Viva Biotech
# Experiment: USP7 Assay A (Ubitquin-Rhodamine 110 Assay)
# Format: biochemical
# Settings: USP7_IC50, USP7 activity in USP7 assay A and B (table does not say which assay per compound)
# Method in brief: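 Ub-Rh110 cleavage in 20 mM Tris-HCl pH 8.0 with 1 mM GSH, 0.03% BGG, 0.01% Triton X-100; compound preincubated with enzyme 30 min before substrate.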
# T1 sequence (Q93009 208-1102): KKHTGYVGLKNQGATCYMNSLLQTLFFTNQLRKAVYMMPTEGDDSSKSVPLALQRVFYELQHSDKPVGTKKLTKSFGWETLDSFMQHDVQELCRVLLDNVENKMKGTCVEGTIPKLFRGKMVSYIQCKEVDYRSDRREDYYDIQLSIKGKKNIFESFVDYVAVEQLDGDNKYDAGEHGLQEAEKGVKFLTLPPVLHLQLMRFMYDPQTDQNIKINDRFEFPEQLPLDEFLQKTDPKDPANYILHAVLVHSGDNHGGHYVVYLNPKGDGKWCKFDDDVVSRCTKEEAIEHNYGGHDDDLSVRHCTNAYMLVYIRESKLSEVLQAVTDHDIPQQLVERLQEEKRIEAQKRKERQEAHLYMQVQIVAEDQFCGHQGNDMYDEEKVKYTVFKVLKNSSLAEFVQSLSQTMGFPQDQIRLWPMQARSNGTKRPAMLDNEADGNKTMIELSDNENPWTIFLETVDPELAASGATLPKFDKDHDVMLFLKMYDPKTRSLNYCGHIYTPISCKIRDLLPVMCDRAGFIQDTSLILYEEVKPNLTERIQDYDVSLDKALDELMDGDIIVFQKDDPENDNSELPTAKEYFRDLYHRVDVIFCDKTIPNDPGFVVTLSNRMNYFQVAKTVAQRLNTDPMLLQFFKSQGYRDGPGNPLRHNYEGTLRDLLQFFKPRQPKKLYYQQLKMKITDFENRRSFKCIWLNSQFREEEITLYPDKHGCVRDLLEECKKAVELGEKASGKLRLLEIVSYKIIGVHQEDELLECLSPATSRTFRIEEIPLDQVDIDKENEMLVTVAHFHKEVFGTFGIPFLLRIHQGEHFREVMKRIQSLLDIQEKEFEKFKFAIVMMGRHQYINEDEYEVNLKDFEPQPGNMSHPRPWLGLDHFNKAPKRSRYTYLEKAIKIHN
row,SMILES,IC50
1,CN1C2CCC1CN(c1cccc(-n3ncc4c(=O)n(CC5(O)CCN(C(=O)C6(C)CC6)CC5)cnc43)c1)C2 [Compound I-1644],< 200 nM

# Same assay, conditions: USP7 activity in USP7 assay A and B (table does not say which assay per compound); read-out: USP7_IC50
row,SMILES,IC50
1,CC1(COc2ccc(-n3ncc4c(=O)n(CC5(O)CCN(C(=O)c6cnc(C7CC7)o6)CC5)cnc43)cc2)CCC1 [Compound I-1508],200 to 1000 nM
2,CC1(C(=O)N2CCC(O)(Cn3cnc4c(cnn4-c4cccc(N5CCC(F)CC5)c4)c3=O)CC2)CC1 [Compound I-1561],< 200 nM
3,CC1(C(=O)N2CCC(O)(Cn3cnc4c(cnn4-c4ccc(N5CC(C6CCOCC6)C5)cc4)c3=O)CC2)CC1 [Compound I-1570],200 to 1000 nM
4,O=C(c1ccc(F)cc1)N1CCC(O)(Cn2cnc3c(cnn3-c3ccc(-c4cnn(C5CCOCC5)c4)cc3)c2=O)CC1 [Compound I-1614],200 to 1000 nM
5,O=C(c1ccc(F)cc1)N1CCC(O)(Cn2cnc3c(cnn3-c3ccc(-c4cnn(C5COC5)c4)cc3)c2=O)CC1 [Compound I-1615],200 to 1000 nM
6,CC(C)(CO)n1cc(-c2ccc(-n3ncc4c(=O)n(CC5(O)CCN(C(=O)c6ccc(F)cc6)CC5)cnc43)cc2)cn1 [Compound I-1616],200 to 1000 nM
7,CC(C)(O)Cn1cc(-c2ccc(-n3ncc4c(=O)n(CC5(O)CCN(C(=O)c6ccc(F)cc6)CC5)cnc43)cc2)cn1 [Compound I-1617],200 to 1000 nM
8,CN1CCC2(CC1)CCN(c1ccc(-n3ncc4c(=O)n(CC5(O)CCN(C(=O)c6ccc(F)cc6)CC5)cnc43)cc1)CC2 [Compound I-1621],< 200 nM
9,CN1CCC2(CC1)CCN(c1ccc(-n3ncc4c(=O)n(CC5(O)CCN(C(=O)C6CC6)CC5)cnc43)cc1)CC2 [Compound I-1622],< 200 nM
10,Cc1cnn(-c2ccc(-n3ncc4c(=O)n(CC5(O)CCN(C(=O)c6ccc(F)cc6)CC5)cnc43)cc2)c1 [Compound I-1623],1000 to 10000 nM
11,CC(=O)N1CCC(O)(Cn2cnc3c(cnn3-c3ccc(Cl)cc3)c2=O)CC1 [Compound I-1625],> 10000 nM
12,CC1(C(=O)N2CCC(O)(Cn3cnc4c(cnn4-c4ccc(Cl)cc4)c3=O)CC2)CC1 [Compound I-1632],1000 to 10000 nM
13,CC1(C(=O)N2CCC(O)(Cn3cnc4c(cnn4-c4ccc(N5CC(N6CCOCC6)C5)cc4)c3=O)CC2)CC1 [Compound I-1636],200 to 1000 nM
14,CC1(C(=O)N2CCC(O)(Cn3cnc4c(cnn4-c4cccc(N5CC(N6CCOCC6)C5)c4)c3=O)CC2)CC1 [Compound I-1637],200 to 1000 nM
15,C[C@@H]1CN(c2ccc(-n3ncc4c(=O)n(CC5(O)CCN(C(=O)C6(C)CC6)CC5)cnc43)cc2)C[C@H](C)N1C [Compound I-1638],< 200 nM
16,C[C@H]1CN(c2ccc(-n3ncc4c(=O)n(CC5(O)CCN(C(=O)C6(C)CC6)CC5)cnc43)cc2)CCN1C [Compound I-1639],< 200 nM
17,C[C@@H]1CN(c2ccc(-n3ncc4c(=O)n(CC5(O)CCN(C(=O)C6(C)CC6)CC5)cnc43)cc2)CCN1C [Compound I-1640],< 200 nM

row,SMILES,IC50
1,CN1CCN(c2ccc(-n3ncc4c(=O)n(CC5(O)CCN(C(=O)C6(C)CC6)CC5)cnc43)cc2)CC1 [Compound I-1641],< 200 nM
2,CC1(C(=O)N2CCC(O)(Cn3cnc4c(cnn4-c4ccc(N5CCC(C6COC6)CC5)cc4)c3=O)CC2)CC1 [Compound I-1642],200 to 1000 nM
3,CC1(C(=O)N2CCC(O)(Cn3cnc4c(cnn4-c4ccc(N5CC6CC(C5)O6)cc4)c3=O)CC2)CC1 [Compound I-1643],200 to 1000 nM
4,CC1CN(c2cccc(-n3ncc4c(=O)n(CC5(O)CCN(C(=O)C6(C)CC6)CC5)cnc43)c2)CC(C)N1C (stereo not shown) [Compound I-1645],< 200 nM
5,C[C@H]1CN(c2cccc(-n3ncc4c(=O)n(CC5(O)CCN(C(=O)C6(C)CC6)CC5)cnc43)c2)CCN1C [Compound I-1646],< 200 nM
6,O=C(c1ccc(F)cc1)N1CCC(O)(Cn2cnc3c(cnn3-c3ccc(N4CCCn5nccc54)cc3)c2=O)CC1 [Compound I-1654],200 to 1000 nM
7,O=C(C1CC1)N1CCC(O)(Cn2cnc3c(cnn3-c3ccc(N4CCC(O)C4)cc3)c2=O)CC1 (stereo not shown) [Compound I-1655],1000 to 10000 nM
8,CC1(O)CCN(c2ccc(-n3ncc4c(=O)n(CC5(O)CCN(C(=O)C6CC6)CC5)cnc43)cc2)C1 (stereo not shown) [Compound I-1657],1000 to 10000 nM
9,Cn1cc(-c2ccc(-n3ncc4c(=O)n(CC5(O)CCN(C(=O)c6ccc(F)cc6)CC5)cnc43)cc2)cn1 [Compound I-1672],1000 to 10000 nM
10,O=C(C1CC1)N1CCC(O)(Cn2cnc3c(cnn3-c3ccc(-c4cnn5c4COCC5)cc3)c2=O)CC1 [Compound I-1673],1000 to 10000 nM
11,CC1(C(=O)N2CCC(O)(Cn3cnc4c(cnn4-c4ccc(N5CC(C(C)(C)O)C5)cc4)c3=O)CC2)CC1 [Compound I-1674],200 to 1000 nM
12,CC1(C(=O)N2CCC(O)(Cn3cnc4c(cnn4-c4cccc(N5CCC(F)(F)CC5)c4)c3=O)CC2)CC1 [Compound I-1675],< 200 nM
13,CC1(C(=O)N2CCC(O)(Cn3cnc4c(cnn4-c4cccc(N5CC(C(C)(C)O)C5)c4)c3=O)CC2)CC1 [Compound I-1676],< 200 nM
14,CC1(C(=O)N2CCC(O)(Cn3cnc4c(cnn4-c4ccc(N5CC(O)C5)cc4)c3=O)CC2)CC1 [Compound I-1677],200 to 1000 nM
15,CC1(C(=O)N2CCC(O)(Cn3cnc4c(cnn4-c4cccc(N5CC(O)C5)c4)c3=O)CC2)CC1 [Compound I-1678],200 to 1000 nM
16,CC1(C(=O)N2CCC(O)(Cn3cnc4c(cnn4-c4ccc(N5CC(F)C5)cc4)c3=O)CC2)CC1 [Compound I-1679],200 to 1000 nM

# Same assay, conditions: USP7 assay A and B (table does not say which assay per compound); read-out: USP7_IC50
row,SMILES,IC50
1,O=C(Nc1ccc(-n2ncc3c(=O)n(CC4(O)CCN(C(=O)C5CC5)CC4)cnc32)cc1)Nc1cccnc1 [Compound I-1448],1000 to 10000 nM
2,CN(C)C(=O)N1CCC(O)(Cn2cnc3c(cnn3-c3ccc(N4CCC(F)(F)CC4)cc3)c2=O)CC1 [Compound I-1461],1000 to 10000 nM
3,CN(C)C1CCN(C(=O)c2cccc(-n3ncc4c(=O)n(CC5(O)CCN(C(=O)C6CC6)CC5)cnc43)c2)CC1 [Compound I-1468],1000 to 10000 nM
4,CN(C)CCNC(=O)c1ccc(-n2ncc3c(=O)n(CC4(O)CCN(C(=O)C5CC5)CC4)cnc32)cc1 [Compound I-1487],200 to 1000 nM
5,O=C(Nc1ccccc1)c1ccc(-n2ncc3c(=O)n(CC4(O)CCN(C(=O)C5CC5)CC4)cnc32)cc1 [Compound I-1490],1000 to 10000 nM
6,O=C(Nc1ccc(F)cc1)c1ccc(-n2ncc3c(=O)n(CC4(O)CCN(C(=O)C5CC5)CC4)cnc32)cc1 [Compound I-1492],1000 to 10000 nM
7,O=C(Nc1nccs1)c1ccc(-n2ncc3c(=O)n(CC4(O)CCN(C(=O)C5CC5)CC4)cnc32)cc1 [Compound I-1493],1000 to 10000 nM
8,CN(C)C1CCN(C(=O)c2ccc(-n3ncc4c(=O)n(CC5(O)CCN(C(=O)C6CC6)CC5)cnc43)cc2)CC1 [Compound I-1496],1000 to 10000 nM
9,O=C(Nc1ccc(-n2ncc3c(=O)n(CC4(O)CCN(C(=O)C5CC5)CC4)cnc32)cc1)N1CCCC1 [Compound I-1499],1000 to 10000 nM
10,CN(C)C(=O)Nc1cccc(-n2ncc3c(=O)n(CC4(O)CCN(C(=O)C5CC5)CC4)cnc32)c1 [Compound I-1501],1000 to 10000 nM
11,Cc1ccc(-n2ncc3c(=O)n(CC4(O)CCN(C(=O)c5ccc(Oc6ccccn6)cc5)CC4)cnc32)cc1 [Compound I-1510],200 to 1000 nM
12,Cc1ccc(-n2ncc3c(=O)n(CC4(O)CCN(C(=O)c5cnc(C)o5)CC4)cnc32)cc1 [Compound I-1514],200 to 1000 nM
13,O=C(c1ccc(Oc2ccccn2)cc1)N1CCC(O)(Cn2cnc3c(cnn3-c3ccc(Cl)cc3)c2=O)CC1 [Compound I-1519],1000 to 10000 nM
14,O=C(c1ccc2c(c1)CCO2)N1CCC(O)(Cn2cnc3c(cnn3-c3ccc(Cl)cc3)c2=O)CC1 [Compound I-1521],1000 to 10000 nM
15,Cc1ccc(C(=O)N2CCC(O)(Cn3cnc4c(cnn4-c4ccc(Cl)cc4)c3=O)CC2)cc1F [Compound I-1523],1000 to 10000 nM
16,Cc1ncc(C(=O)N2CCC(O)(Cn3cnc4c(cnn4-c4ccc(Cl)cc4)c3=O)CC2)o1 [Compound I-1524],1000 to 10000 nM
17,CN(C)C(=O)N1CCC(O)(Cn2cnc3c(cnn3-c3ccc(N4CCN5CCCCC5C4)cc3)c2=O)CC1 (stereo not shown) [Compound I-1525],1000 to 10000 nM
18,CN(C)C(=O)N1CCC(O)(Cn2cnc3c(cnn3-c3ccc(-n4cc(C(F)(F)F)cn4)cc3)c2=O)CC1 [Compound I-1526],1000 to 10000 nM
19,O=C(c1cc2n(n1)CCO2)N1CCC(O)(Cn2cnc3c(cnn3-c3ccc(Cl)cc3)c2=O)CC1 [Compound I-1527],1000 to 10000 nM
20,O=C(c1ccc(Oc2ncccn2)cc1)N1CCC(O)(Cn2cnc3c(cnn3-c3ccc(Cl)cc3)c2=O)CC1 [Compound I-1528],1000 to 10000 nM
21,O=C(c1ccc(-n2ccnn2)cc1)N1CCC(O)(Cn2cnc3c(cnn3-c3ccc(F)cc3)c2=O)CC1 [Compound I-1535],200 to 1000 nM
22,Cc1ccc(-n2ncc3c(=O)n(CC4(O)CCN(C(=O)c5cnc(C6CC6)o5)CC4)cnc32)cc1 [Compound I-1542],200 to 1000 nM
23,CN(C)C(=O)N1CCC(O)(Cn2cnc3c(cnn3-c3ccc(NCCN4CCCCC4)cc3)c2=O)CC1 [Compound I-1543],200 to 1000 nM
24,CN(C)C(=O)N1CCC(O)(Cn2cnc3c(cnn3-c3ccc(NC4CC(C)(C)C4)cc3)c2=O)CC1 [Compound I-1544],1000 to 10000 nM
25,O=C(c1cc2n(n1)CCCO2)N1CCC(O)(Cn2cnc3c(cnn3-c3ccc(Cl)cc3)c2=O)CC1 [Compound I-1569],1000 to 10000 nM
26,CN(C)C(=O)Nc1ccc(-n2ncc3c(=O)n(CC4(O)CCN(C(=O)c5ccc(F)cc5)CC4)cnc32)cc1 [Compound I-1576],1000 to 10000 nM
27,O=C(C1CC1)N1CCC(O)(Cn2cnc3c(cnn3-c3ccc(N4CCN5CCCCC5C4)cc3)c2=O)CC1 (stereo not shown) [Compound I-1584],200 to 1000 nM
28,O=C(c1cnc(C2CC2)o1)N1CCC(O)(Cn2cnc3c(cnn3-c3ccc(-c4ccccc4)cc3)c2=O)CC1 [Compound I-1659],200 to 1000 nM
29,CN(C)C(=O)N1CCC(O)(Cn2cnc3c(cnn3-c3cccc(-n4cc(Cl)cn4)c3)c2=O)CC1 [Compound I-1666],> 10000 nM
30,O=C(C1CC1)N1CCC(O)(Cn2cnc3c(cnn3-c3ccc(OC4CCOCC4)cc3)c2=O)CC1 [Compound I-1667],1000 to 10000 nM
